Assay results published in patent US20110118277A1, “METHOD OF TREATING LIVER DISEASE” (priority 2003, published 2011).

How the values were obtained:
[1] = tested on: healthy rats; conditions: healthy rats treated chronically; cited from earlier work
[2] = tested on: C57BL-6 mice fed HMCDE diet; experiment: HMCDE diet-induced liver injury in mice: body weight, liver mass, histology, serum ALT, tolerability; assay type: in vivo, mouse
Method: C57BL-6 mice, 10-18 weeks old, were from Jackson Laboratory (Bar Harbor, Me.) were subjected to the following experiments.
In addition to choline deficiency the diet used here was also 50% deficient in methionine to enhance oxidative injury to the liver, This diet was administered with ethionine (0.15%) in drinking water (Hepatology 2001; 34; 519-522) and the combination treatment is hereafter referred to as half methionine choline deficient diet plus ethionine (HMCDE).
Chemical sympathectomy was achieved by intra-peritoneal (IP) injection of 6-hydroxydopamine (6-OHDA), 100 mg/kg for 5 consecutive days as described in Ann Surg 2001; 233:266-275. Thereafter, 6-OHDA was administered at 100 mg/kg i.p., three times per week to ensure continued sympathectomy.
Mice were divided into 4 groups, with each group containing 10 to 12 animals. […] Therefore, final results are derived from ˜100 mice (10-12 mice/group/experiment×2 experiments).
All mice were weighed at the beginning of the feeding period and weekly thereafter until killed. At the time of sacrifice, sera were collected from all the animals in each group and liver tissue from half the animals in each group. Collected liver tissues were either fixed in buffered formalin, preserved in OCT compound (Sakura, Torrance, Calif.) and processed for histology or snap frozen in liquid nitrogen and stored at −80° C. until RNA was isolated. The livers from the remaining animals in each group were prepared for flow cytometry as described below.
Wedges of liver from each of the mice were prepared for histology and immunochemistry as described previously (Am J Pathol 2002: 161:5210530 and Nat. Med. 2000; 6: 998-1003). For histology, tissues were formalin fixed, paraffin embedded and […] sections were stained with hematoxylin and eosin (H&E). Coded samples were examined by an experienced liver pathologist who was blinded to treatment groups. Hepatocellular fat accumulation was scored as, no fat 0, focal fat accumulation in <1% of the hepatocytes=F, fat in 1-30% of the hepatocytes 1+, fat in 31-60% of the hepatocytes=2+, and fat in 61-100% of the hepatocytes3+. To evaluate the amount of hepatocyte necrosis, the number of necrotic hepatocytes was counted in 10 randomly selected fields with a 20× lens.
Sera from all the animals were analysed for alanine aminotransferase (ALT) activity by the Clinical Chemistry laboratory of the Johns Hopkins Hospital.

[3] = tested on: NK-T cells; experiment: Flow cytometry of liver NK-T cells in HMCDE-fed mice; assay type: in vivo, mouse; conditions: HMCDE-treated mice; HMCDE alone 8±1%; mean±SEM
Method: Briefly, livers were carefully removed and homogenized in Stomacher80 (Seawood, England). The homogenate was then passed through a 100-μm wire mesh and liver cells were collected by centrifugation at 450 g. Mononuclear cells were purified from this fraction by centrifugation at 900 g over 35% Percoll gradients (Amersham Pharmacia Biotech) and incubated with normal mouse serum (Sigma, St Louis, Mo.) and Fc-receptor block (anti-CD16/CD32) to prevent nonspecific binding, plus APC-conjugated anti-mouse Thy-1.2 (the C57BL-6 form of the Thy-1 antibody) and antibodies directed against hematopoietic lineage markers (LIN, a mix of anti-mouse CD4, CD8, CD3, CD45, CD19, Mac-1, Gr-1, Ter119). For NK-T cell labelling, the mononuclear cells were incubated with FTTC-conjugated anti-mouse NK-1.1 and PE-conjugated anti-mouse CD3. All antibodies were from Pharmingen except anti-mouse Ter119, which was from Cedarline lab, Canada. After incubation, pellets were washed to remove unbound antibodies, fixed with 2% formaldehyde and evaluated by FACS (Becton Dickenson). As described in Science 1999; 284:1168-1170, LN^−ve/Thy-1^+ve cells, were classified as putative bone marrow-derived, hepatic progenitor cells. Data was analyzed by Cell Quest software (Becton Dickenson) to determine changes in these cell populations in different treatment groups.

[4] = tested on: norepinephrine; conditions: 6-OHDA 100 mg/kg i.p. regimen, previously shown; cited from earlier work
[5] = tested on: carbon tetrachloride-treated rats; conditions: earlier study; cited from earlier work
[6] = tested on: hepatocyte DNA synthesis; conditions: rats pre-treated immediately before PH; cited from earlier work
[7] = tested on: TNF-α; experiment: Hepatic expression of TNF-α mRNA in whole liver RNA; assay type: in vivo, mouse; conditions: 3 controls and 3 PRZ-treated mice
Source text: The latter possibility merits further investigation because it has been reported that TNF-a increases in mice that are fed choline-deficient diets and that proliferating hepatic oval cells produce this cytokine. Moreover, it has been reported that TNF-α is required for oval cell expansion because this response is abrogated by genetic disruption of TNFR1. These observations are particularly intriguing because TNF-α and TNFR1 are necessary for liver regeneration after PH and other types of liver injury. There is strong evidence for cross talk between signaling mechanisms that are activated by TNF-α and those that are modulated by sympathetic neurotransmitters, such as NE. In addition, NE regulates TNF production and vice versa. Thus, SNS inhibition may promote HPC accumulation and decrease liver injury indirectly, by effecting TNF-α activity. […] However, before firm conclusions can be drawn, these studies must be extended to include more animals and assays for TNF-α protein and activity will be necessary.

[8] = tested on: Mouse hepatic oval cells (HOC); experiment: Oval cell growth in culture (WST-8 cell number assay); assay type: cell-based
Method: Mouse hepatic oval cells (HOC) (from Dr. Bryon Petersen, University of Florida College of Medicine, Gainesville, Fla.) were maintained in culture with Iscove's modified DMEM according to the protocol described in PNAS 99: 8078-8083, 2002. To confirm that the cells retained their oval cell phenotype in our hands, expression of the embryonic isoform of pyruvate kinase (M2-PK) was evaluated by immunocytochemistry and immunoblot.
Sub-confluent HOC were harvested by gentle trypsinisation and resuspended in serum-free Iscove's modified Dulbecco's minimal essential medium (DMEM), at a density of 5,000 cells/100 μl/well in 96-well plates. […] After 44 hours, cell numbers were assessed by a further 4 h incubation with WST-8 tetrazolium reagent (Dojindo Molecular Technologies, Gaithersburg, Md.) as described in J Clin Invest 106: 501-509, 2000. In viable cells, the tetrazolium salt is metabolized to a colorimetric dye and cell number is proportional to the signal intensity at 450 nm Therefore, this assay reliably detects treatment-induced changes in cell number.
Oval cells were cultured in serum free medium (SF), serum or serum plus increasing concentrations of NE (a) or ISO (c). After 48 hours, the numbers of cells in culture were evaluated. […] Cell numbers were determined after 48 hours.

SMILES | liver weight, body weight, ratio and serum ALT [1] | weight loss versus HMCDE group ([2]; FIG. 1, 4 weeks of feeding, P<0.05) | liver cell death / necrosis, representative liver section ([2]; FIG. 3A, H&E) | hepatocellular fat accumulation score, representative liver section ([2]; FIG. 3A, H&E, representative HMCDE animal 2+) | fat score versus HMCDE alone ([2]; FIG. 3B) | numbers of necrotic hepatocytes versus HMCDE diet alone ([2]; FIG. 3C, P<0.05) | serum alanine aminotransferase (ALT) versus HMCDE-fed mice ([2]; FIG. 3D, P<0.03) | mean body weight lost ([2]; mice fed HMCDE diet, 4 weeks, HMCDE alone lost 3 g) | body weight lost, % of starting body weight ([2]; mice fed HMCDE diet, 4 weeks, HMCDE alone lost 12%) | numbers of NK-T cells in the liver, % liver mononuclear cells [3] | norepinephrine in rodent tissues [4] | development of cirrhosis [5] | compensatory induction of hepatocyte DNA synthesis after partial hepatectomy [6] | hepatic TNF-α gene expression versus HMCDE-treated controls [7] | effect on proliferation induced by NE plus ISO ([8]; PRZ 10 μM, NE (100 nM)+ISO (100 nM)) | effect on NE-induced oval cell proliferation ([8]; prazosin 10 μM, pertussis toxin 100 ng/ml, PD98059 20 μM, SB202190 10 μM, 48 hours)
NCCc1cc(O)c(O)cc1O [6-OHDA, 6-hydroxydopamine] | liver weight, body weight and liver weight to body weight ratios increase significantly without any associated increase in serum ALT values | lost less weight than the HMCDE group | minimal necrosis | F+ | significantly less fat than the HMCDE alone group | reduced | lower ALT levels | 2 g | 8% | 3.6 ± 0.6% | virtually deplete norepinephrine in rodent tissues | – | – | – | – | –
COc1cc2nc(N3CCN(C(=O)c4ccco4)CC3)nc(N)c2cc1OC [PRZ, prazosin] | – | – | – | – | – | – | – | – | – | – | – | prevents the development of cirrhosis | inhibited | No differences in TNF-a gene expression were detected | blocks catecholamine-induced proliferation | significantly attenuated
